The results in this text go back to patent US12473304B2, “Heterocyclic PAD4 inhibitors” (BRISTOL-MYERS SQUIBB COMPANY, priority 2020, dated 2025).

Sequence of human PAD4 (hPAD4) (Q9UM07 whole entry): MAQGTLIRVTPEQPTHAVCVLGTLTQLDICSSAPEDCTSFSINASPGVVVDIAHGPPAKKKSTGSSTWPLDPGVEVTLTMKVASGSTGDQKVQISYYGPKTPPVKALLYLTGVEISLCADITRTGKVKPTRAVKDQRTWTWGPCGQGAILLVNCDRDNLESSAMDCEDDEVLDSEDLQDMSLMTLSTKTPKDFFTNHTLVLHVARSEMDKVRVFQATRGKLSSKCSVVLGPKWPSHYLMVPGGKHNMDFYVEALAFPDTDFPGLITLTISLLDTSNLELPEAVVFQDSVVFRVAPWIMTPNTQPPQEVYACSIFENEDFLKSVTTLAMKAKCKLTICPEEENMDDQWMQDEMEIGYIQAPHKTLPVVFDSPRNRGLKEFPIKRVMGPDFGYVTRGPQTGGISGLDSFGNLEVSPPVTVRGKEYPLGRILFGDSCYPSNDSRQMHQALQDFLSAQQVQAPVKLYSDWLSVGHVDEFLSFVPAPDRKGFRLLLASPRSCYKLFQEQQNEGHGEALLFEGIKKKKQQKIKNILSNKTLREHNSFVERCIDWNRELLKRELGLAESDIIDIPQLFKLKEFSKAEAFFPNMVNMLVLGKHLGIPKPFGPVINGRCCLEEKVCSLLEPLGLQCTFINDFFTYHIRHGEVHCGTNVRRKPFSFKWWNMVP

This assay concerns the target human PAD4 (hPAD4) (Homo sapiens (Human), UniProt Q9UM07). Description: RFMS Human PAD4 Functional Assay 1. Particulars: RFMS assay 1; 5 nM hPAD4, 250 μM BAEE substrate, 50 μM calcium, 37° C. Format: biochemical. In outline: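 Citrullination product read by RapidFire triple-quad MRM against a modified-citrulline internal standard, after TCA stop and 30 min phenyl glyoxal step at 37 °C. Reaction: 250 μM BAEE, 5 nM human PAD4, 90 min at 37 °C, pH 7.5 HEPES buffer with 50 μM calcium and 5 μM TPEN, following 30 min compound–enzyme preincubation (max 50 μM).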
`Cc1c(-c2cc3cccc(OCC4CNC(=O)C4)c3n2CC2CC2)nn2cc(C(=O)N3C[C@H](N)C[C@@H](F)C3)cc(F)c12` (single isomer, unassigned) [Example 572]: the half-maximal inhibitory concentration (IC50) was determined as 80 nM. With `COc1cc(C(=O)N2CC3CCC2[C@@H]3N)cc2sc(-c3cc4ccc(C)cc4n3CC3CC3)c(C)c12` (stereo partly drawn) [Example 127, ((7R)-7-Amino-2-azabicyclo[2.2.1]heptan-2-yl)(2-(1-(cyclopropylmethyl)-6-methyl-1H-indol-2-yl)-4-methoxy-3-methylbenzo[b]thiophen-6-yl)methanone] the figure was 98 nM.

`COc1cc(C(=O)N2CC3CCC2[C@@H]3N)cc2sc(-c3cc4ccc(-c5cccc(O)c5F)cc4n3CC3CC3)c(C)c12` (stereo partly drawn) [Example 121, ((7R)-7-Amino-2-azabicyclo[2.2.1]heptan-2-yl)(2-(1-(cyclopropylmethyl)-6-(2-fluoro-3-hydroxyphenyl)-1H-indol-2-yl)-4-methoxy-3-methylbenzo[b]thiophen-6-yl)methanone]: the IC50 stood at 1500 nM.

Take `COCC(=O)N1CC(c2cccc3cc(-c4nn5cc(C(=O)N6CCC[C@@H](N)C6)cc(OC)c5c4C)n(CC4CC4)c23)C1` [Example 528, (R)-1-(3-(2-(6-(3-Aminopiperidine-1-carbonyl)-4-methoxy-3-methylpyrazolo[1,5-a]pyridin-2-yl)-1-(cyclopropylmethyl)-1H-indol-7-yl)azetidin-1-yl)-2-methoxyethan-1-one]: the IC50 worked out at 15000 nM. For the compound `Cc1c(-c2cc3ccc(-c4ccccc4N4CCNC4=O)nc3n2CC2CC2)nn2cc(C(=O)N3CC4CCC3[C@@H]4N)cc(F)c12` (stereo partly drawn) [Example 257, 1-[2-(2-{6-[(7R)-7-Amino-2-azabicyclo[2.2.1]heptane-2-carbonyl]-4-fluoro-3-methylpyrazolo[1,5-a]pyridin-2-yl}-1-(cyclopropylmethyl)-1H-pyrrolo[2,3-b]pyridin-6-yl)phenyl]imidazolidin-2-one], the 50% inhibitory concentration (IC50) turned out to be 60 nM. As for `Cc1c(-c2cc3ccc(N4CCC[C@@H](O)C4)nc3n2CC2CC2)nn2cc(C(=O)N3CC4CCC3[C@@H]4N)cc(F)c12` (stereo partly drawn) [Example 265, ((7R)-7-Amino-2-azabicyclo[2.2.1]heptan-2-yl)(2-(1-(cyclopropylmethyl)-6-((R)-3-hydroxypiperidin-1-yl)-1H-pyrrolo[2,3-b]pyridin-2-yl)-4-fluoro-3-methylpyrazolo[1,5-a]pyridin-6-yl)methanone], the IC50 stood at 110 nM. To `Cc1c(-c2cc3cccc(C4CN(C(=O)[C@H]5CC[C@H](O)CC5)C4)c3n2CC2CC2)nn2cc(C(=O)N3CCC[C@@H](N)C3)ccc12` [Example 530, ((R)-3-Aminopiperidin-1-yl)(2-(1-(cyclopropylmethyl)-7-(1-((1r,4r)-4-hydroxycyclohexane-1-carbonyl)azetidin-3-yl)-1H-indol-2-yl)-3-methylpyrazolo[1,5-a]pyridin-6-yl)methanone] belongs 30 nM; to `Cc1c(-c2cc3ccc(-c4ccc5c(c4)C(=O)NC5)cc3n2CC2CC2)nn2cc(C(=O)N3CC4CCC3[C@@H]4N)ccc12` (stereo partly drawn) [Example 89, 6-(2-(6-((7R)-7-Amino-2-azabicyclo[2.2.1]heptane-2-carbonyl)-3-methylpyrazolo[1,5-a]pyridin-2-yl)-1-(cyclopropylmethyl)-1H-indol-6-yl)isoindolin-1-one], 48 nM; to `COC(=O)N(C)C1CCN(c2ccc3cc(-c4nn5cc(C(=O)N6C[C@H](N)C[C@@H](F)C6)cc(OC)c5c4C)n(CC4CC4)c3c2)CC1` [Example 245, Methyl N-[1-(2-{6-[(3R,5R)-3-amino-5-fluoropiperidine-1-carbonyl]-4-methoxy-3-methylpyrazolo[1,5-a]pyridin-2-yl}-1-(cyclopropylmethyl)-1H-indol-6-yl)piperidin-4-yl]-N-methylcarbamate], 70 nM. With `Cc1c(-c2cc3ccc(C(C)(C)O)nc3n2CC2CC2)nn2cc(C(=O)N3CC4CCC3[C@@H]4N)ccc12` (stereo partly drawn) [Example 102, ((7R)-7-Amino-2-azabicyclo[2.2.1]heptan-2-yl)(2-(1-(cyclopropylmethyl)-6-(2-hydroxypropan-2-yl)-1H-pyrrolo[2,3-b]pyridin-2-yl)-3-methylpyrazolo[1,5-a]pyridin-6-yl)methanone], the concentration for half-maximal inhibition (IC50) came to 12 nM. For the compound `CO[C@@H](C)C(=O)N1CCC(c2cccc3cc(-c4nn5cc(C(=O)N6CCC[C@@H](N)C6)cc(F)c5c4C)n(CC4CC4)c23)CC1` [Example 424, (S)-1-(4-(2-(6-((R)-3-Aminopiperidine-1-carbonyl)-4-fluoro-3-methylpyrazolo[1,5-a]pyridin-2-yl)-1-(cyclopropylmethyl)-1H-indol-7-yl)piperidin-1-yl)-2-methoxypropan-1-one], the IC50 worked out at 80 nM.

As for `CO[C@H](C)C(=O)N1CC(c2cccc3cc(-c4nn5cc(C(=O)N6CCC[C@@H](N)C6)ccc5c4C)n(CC4CC4)c23)C1` [Example 541, (R)-1-(3-(2-(6-((R)-3-Aminopiperidine-1-carbonyl)-3-methylpyrazolo[1,5-a]pyridin-2-yl)-1-(cyclopropylmethyl)-1H-indol-7-yl)azetidin-1-yl)-2-methoxypropan-1-one], the concentration for half-maximal inhibition (IC50) came to 2530 nM. As for `COC(=O)N(C)C1CCN(c2ccc3cc(-c4nn5cc(C(=O)N6CCC[C@@H](N)C6)cc(F)c5c4C)n(CC4CC4)c3n2)CC1` [Example 272, Methyl N-[1-(2-{6-[(3R)-3-aminopiperidine-1-carbonyl]-4-fluoro-3-methylpyrazolo[1,5-a]pyridin-2-yl}-1-(cyclopropylmethyl)-1H-pyrrolo[2,3-b]pyridin-6-yl)piperidin-4-yl]-N-methylcarbamate], the IC50 is 3810 nM.

Regarding `COc1cc(C(=O)N2C[C@H](N)C[C@@H](F)C2)cn2nc(-c3cc4ccc(-c5ccc(NS(C)(=O)=O)cc5)cc4n3CC3CC3)c(C)c12` [Example 216, N-[4-(2-{6-[(3R,5R)-3-Amino-5-fluoropiperidine-1-carbonyl]-4-methoxy-3-methylpyrazolo[1,5-a]pyridin-2-yl}-1-(cyclopropylmethyl)-1H-indol-6-yl)phenyl]methanesulfonamide], the IC50 came out at 270 nM. To `COc1cc(C(=O)N2CC3CCC2[C@@H]3N)cc2sc(-c3cc4cccnc4n3CC3CC3)c(C)c12` (stereo partly drawn) [Example 119, ((7R)-7-Amino-2-azabicyclo[2.2.1]heptan-2-yl)(2-(1-(cyclopropylmethyl)-1H-pyrrolo[2,3-b]pyridin-2-yl)-4-methoxy-3-methylbenzo[b]thiophen-6-yl)methanone] belongs 84 nM. With `CCOCC(=O)N1CCC(c2cccc3cc(-c4nn5cc(C(=O)N6CCC[C@@H](N)C6)ccc5c4C)n(CC4CC4)c23)CC1` [Example 441, (R)-1-(4-(2-(6-(3-aminopiperidine-1-carbonyl)-3-methylpyrazolo[1,5-a]pyridin-2-yl)-1-(cyclopropylmethyl)-1H-indol-7-yl)piperidin-1-yl)-2-ethoxyethan-1-one], the half-maximal inhibitory concentration (IC50) is 60 nM.

Regarding `COc1cc(C(=O)N2C[C@H](N)C[C@@H](F)C2)cn2nc(-c3cc4cccc(OCC5CNC(=O)C5)c4n3CC3CC3)c(C)c12` (single isomer, unassigned) [Example 563], the half-maximal inhibitory concentration (IC50) turned out to be 70 nM.

As a reminder, the IC50 is the midpoint of a concentration-inhibition curve.
